Data reported in patent US20080193549A1, “Hoki Fish Liver Oil, Fractions Thereof And Therapeutic Uses” (Otago Innovation Limited, priority 2004, published 2008).

How the values were obtained:
activated neutrophils = test: neutrophil activation: superoxide production (WST-1); format: cell-based, rat; settings: 100 μg/ml, positive control
Protocol: The in vitro anti-inflammatory screening assay used in this investigation involved determining the effect of a test material on activated neutrophils. The production of superoxide was measured. Neutrophils were prepared from fresh rat blood and diluted with phosphate-buffered saline (PBS) and adjusted to a concentration of 10^7 cells per ml. The purity of the preparation was 95% or higher. The test sample was pre-incubated with a cell suspension at 37° C. for 15 minutes in wells of a 96 well culture plate. Then catalase and WST-1 dye reagent were added to each incubate (including controls). Each was then activated with phorbol myristate acetate (100 ng/ml). After incubation for 1 hr at 37° C. the reaction was stopped and the level of superoxide produced from oxidation of the dye WST by the superoxide in each well of the plate determined calorimetrically at 450 nm. As a positive control, triplicate wells with aspirin (100 μg/ml) were assayed. Each sample was assessed at three different concentrations.

rat monocytes = test: macrophage assay: conversion of monocytes to macrophages (nitric oxide, Griess); format: cell-based
Protocol: A diluent composed of RPMI culture media containing 10% foetal calf serum (FCS) was prepared. A density gradient barrier was prepared by mixing a working solution [Optiprep: diluent, 2:1, v/v] with further diluent in a ratio of 2.3 to 5.0. The density of 1.076 g/ml is required for isolating rat monocytes. Freshly isolated rat blood was cooled to 4° C. 5 ml of the density gradient was layered over 5 ml of the blood and 5 ml of diluent was then layered gently on top. After centrifuging at 700 g for 30 min at 4° C., the monocytes were collected from the top of the 1.076 g/ml layer and diluted with 2 volumes of diluent and the pellet was gently resuspended in Hanks Balanced Salt Solution (HBSS). The cell concentration and the relative purity were determined. 500 μl Aliquots of cell suspension were used. […] 10 μl of LPS (5 mg/ml) was then added to all tubes, except the control, to give a final concentration of LPS of approximately 20 μg/ml. The cells were incubated overnight at 37° C. and then centrifuged at 12,000 g (4° C.) for 5 min. The supernatants were collected and aliquots of these were then assayed in duplicate for the concentration of nitric oxide (NO) by the Griess reagent procedure using a kit (Sigma, St Louis, USA).

SMILES	Absorbance units (superoxide production) (activated neutrophils)	inhibition at 100 µg/mL (activated neutrophils; Rattus norvegicus, Neutrophil)	% Inhibition of conversion of monocytes to macrophages (NO production) (rat monocytes; 2.5 μM)	Absorbance units (nitric oxide production) (rat monocytes; 2.5 μM)	% Inhibition of conversion of monocytes to macrophages (NO production) (rat monocytes; 5 μM)	Absorbance units (nitric oxide production) (rat monocytes; 5 μM)
CC(=O)Oc1ccccc1C(=O)O [Aspirin, aspirin]	0.3095 Absorbance units	46.9%	–	–	–	–
CNC(=N)NCCC[C@H](N)C(=O)O [L-NMMA]	–	–	44.94%	1.568 Absorbance units	75.07%	0.710 Absorbance units
